Entries after “also recorded” stand apart in the source; their conditions may differ.
Assays:
[1] = system: colonic epithelial T84 cells (calcium-mediated chloride ion secretion); experiment: Inhibition of calcium-mediated chloride ion secretion (Table I summary); format: cell-based, human; conditions: pathway: Ins (3,4,5,6)P4
Excerpt: The invention provides compounds that are agonists or antagonists of inositol polyphosphates. Inositol polyphosphate derivatives can function as inositol polyphosphate agonists and antagonists. The effects of compounds of the invention on Ins(3,4,5,6)P4 - and PtdInsP3 -mediated inhibition of calcium-mediated chloride ion secretion are described in the Examples and summarized in Table I.
Enantiomerically pure 1,2-Bt2 -Ins(3,4,5,6)P4 /AM was synthesized to determine if 1,2-Bt2 -Ins(3,4,5,6)P4 /AM mediates the uncoupling of chloride ion secretion from intracellular calcium concentrations. T84 cells (passages 18-48) were maintained as described previously (Weymer, et al., J. Clin. Invest. 76:1828 (1985)), which is incorporated herein by reference. After 7-10 days of incubation on SNAP-WELLS (Corning Costar; Cambridge, Mass.), monolayers had formed tight junctions. Cell monolayers were preincubated with 100, 200 or 400 μM Bt2 -Ins(3,4,5,6)P4 /AM for 30 min prior to mounting. After an additional 30 min, 0.1 mM histamine was added and chloride ion secretion was monitored. Chloride ion secretion was measured as short circuit current (Isc) across T84 monolayers grown to confluence and mounted in Ussing chambers equipped with voltage clamps (Physiologic Instruments; San Diego, Calif.). Data was acquired and analyzed using "Acquire and Analyze" software (Physiologic Instruments).

[2] = system: T84 colonic epithelial cells (carbachol-mediated inhibition of chloride ion secretion); experiment: Reversal of carbachol-mediated inhibition of thapsigargin-stimulated chloride ion secretion in T84 cells; format: cell-based, human; conditions: carbachol 10^-4 M, thapsigargin 1 μM
Description: T84 colonic epithelial cells were treated with D,L-1,2-cyclohexylidene-Ins(3,4,5,6)P4 /AM, 1-Bu-2-Bt-Ins(3,4,5,6)P4 /AM, Bu2 -Ins(3,4,5,6)P4 /AM, 3-Bt-2-Bu-Ins(1,4,5,6)P4 /AM, Bu2 -Ins(1,4,5,6)P4 /AM, 1-Bt-2-Bu-Ins(3,4,5,6)P4 /AM or 3-Bu-2-Bt-Ins(1,4,5,6)P4 /AM and the short circuit current was measured.
One set of cells was preincubated for 30 min with an inositol polyphosphate derivative. The other two sets of cells were preincubated with vehicle, alone. Measurement of Isc was initiated at time 0. At 5 min, carbachol (10^-4 M) was added to one set of cells preincubated with vehicle alone (designated "Carbachol" in FIG. 5) and to the set of cells preincubated with inositol polyphosphate derivatives (designated "Carbachol+D,L-1,2-Cyclohexylidene-Ins(3,4,5,6)P4 /AM" in FIG. 5A). At 30 min, 1 μM thapsigargin was added. Data were collected for n=4 to 6 experiments.

[3] = system: T84 cells (Ins(3,4,5,6)P4 inhibition of histamine-stimulated chloride ion secretion); experiment: Reversal of Bt2 -Ins(3,4,5,6)P4 /AM inhibition of histamine-stimulated chloride ion secretion in T84 cells; format: cell-based, human; conditions: T84 cells, histamine-stimulated
Description: Initial studies were directed towards understanding structural determinants of Ins(3,4,5,6)P4 responsible for the inhibitory effect on calcium-mediated chloride ion secretion. A series of cell permeable inositol polyphosphate derivatives were synthesized. These derivatives contained either one or two non-hydrolyzable chemical groups on the 1, 2 or 3 position. T84 monolayers were preincubated for 30 minutes with 200 μM of 2-Bt-1-Me-Ins(3,4,5,6)P4 /AM, Me2 -Ins(3,4,5,6)P4 /AM, Me2 -Ins(1,4,5,6)P4 /AM or 2-Bt-3-Me-Ins(1,4,5,6)P4 /AM.
Following the incubation, cells were mounted in Ussing chambers. Calcium-mediated chloride ion secretion was stimulated with histamine (10^-4 M). Control values were the response to histamine in coincubated monolayers. Data are represented as mean peak ΔIsc ±SEM, expressed as % control for 8 to 10 experiments. Significant differences were identified using the Student's two-tailed t test.
T84 cells were preincubated with cell permeant inositol polyphosphates as described above to determine if any of the inositol polyphosphate derivatives function as antagonists of Ins(3,4,5,6)P4 inhibition of calcium-mediated chloride ion secretion. Following histamine stimulation, short circuit current was measured. […] The % control shown in FIG. 3 represents ΔIsc over peak Isc in control monolayers stimulated with histamine. However, […]

[4] = system: T84 cells (EGF induced inhibition of chloride ion secretion); conditions: cited from earlier work
[5] = system: phosphatidylinositol 3-kinase (PI 3-kinase); conditions: Uribe et al. 1996b; cited from earlier work
[6] = system: T84 cells (EGF induced inhibition of chloride ion secretion); experiment: EGF induced inhibition of carbachol-stimulated chloride ion secretion in T84 cells and its reversal; format: cell-based, human; conditions: EGF 16.3 nM, carbachol 100 μM
Description: After an additional 15 min incubation, 100 μM carbachol was added to acutely elevate intracellular calcium concentrations. Controls also were stimulated with carbachol but were not pretreated with EGF. Data are the means of duplicate measurements from a representative experiment (total of three experiments).

[7] = system: Ins(3,4,5,6)P4; conditions: background; cited from earlier work

Compound	Mechanism and Inositol Polyphosphate Pathway Affected [1]	reversal of carbachol-mediated inhibition of chloride ion secretion (in words) [2]	reversal of the inhibitory effect of Bt2 -Ins(3,4,5,6)P4 /AM / Ins(3,4,5,6)P4-mediated inhibition (in words) [3]	reversal of EGF induced inhibition of chloride ion secretion (in words) ([4]; Uribe et al. 1996b)	effect on formation of PI 3-kinase products (in words) [5]	effect on carbachol-stimulated chloride ion secretion / EGF induced inhibition (in words) [6]	increase in Ins(3,4,5,6)P4 levels [7]	effect on calcium-mediated chloride ion secretion induced by carbachol and thapsigargin (in words) ([4]; Uribe et al. 1996)
CC(=O)OCOP(=O)(OCOC(C)=O)O[C@H]1[C@H](OP(=O)(OCOC(C)=O)OCOC(C)=O)[C@@H](OP(=O)(OCOC(C)=O)OCOC(C)=O)[C@H]2OC3(CCCCC3)O[C@H]2[C@@H]1OP(=O)(OCOC(C)=O)OCOC(C)=O (relative stereo) [rac-1,2-Di-O-cycloheylidene-myo-inositol 3,4,5,6-tetrakisphosphate octakis(acetoxymethyl)ester]	Antagonist of	enhanced chloride ion secretion; also recorded: reversed the inhibitory effect of carbachol on calcium-mediated chloride ion secretion; also recorded: reversed the carbachol-mediated inhibition of chloride ion secretion stimulated by thapsigargin	–	–	–	–	–	–
CCCCO[C@@H]1[C@H](OC(=O)CCC)[C@H](OP(=O)(OCOC(C)=O)OCOC(C)=O)[C@@H](OP(=O)(OCOC(C)=O)OCOC(C)=O)[C@H](OP(=O)(OCOC(C)=O)OCOC(C)=O)[C@H]1OP(=O)(OCOC(C)=O)OCOC(C)=O [1-Bu-2-Bt-Ins(3,4,5,6)P4 /AM, D-1-O-Butyl-2-O-butyryl-myo-inositol 3,4,5,6-tetrakisphosphate octakis(acetoxymethyl)ester]	Antagonist of	enhanced chloride ion secretion; also recorded: reversed the carbachol-mediated inhibition of chloride ion secretion stimulated by thapsigargin	reversed Ins(3,4,5,6)P4 -mediated inhibition of chloride ion secretion	–	–	–	–	–
CCCCO[C@@H]1[C@H](OCCCC)[C@H](OP(=O)(OCOC(C)=O)OCOC(C)=O)[C@@H](OP(=O)(OCOC(C)=O)OCOC(C)=O)[C@H](OP(=O)(OCOC(C)=O)OCOC(C)=O)[C@H]1OP(=O)(OCOC(C)=O)OCOC(C)=O [Bu2 -Ins(3,4,5,6)P4 /AM, D-1,2-Di-O-butyl-myo-inositol 3,4,5,6-tetrakisphosphate octakis(acetozymethyl)ester]	Antagonist of	enhanced chloride ion secretion; also recorded: reversed the carbachol-mediated inhibition of chloride ion secretion stimulated by thapsigargin	reversed Ins(3,4,5,6)P4 -mediated inhibition of chloride ion secretion	–	–	–	–	–
COC[C@H]1OC(=O)c2coc3c2[C@@]1(C)C1=C(C3=O)[C@@H]2CCC(=O)[C@@]2(C)C[C@H]1OC(C)=O [Wortmannin, reference compound]	–	–	–	reversed the EGF induced inhibition of chloride ion secretion	blocked formation of PtdInsP3 and PtdInsP2	–	–	–
EGF: epidermal growth factor (EGF)	–	–	–	–	stimulated an increase in levels of the PI 3-kinase products	decreased chloride ion secretion; also recorded: inhibited carbachol stimulated chloride ion secretion	1.7 -fold	inhibits calcium-mediated chloride ion secretion
